Data: patent US20090023806A1, “ALUMINUM-STORAGE DISEASE IMPROVING AGENT” (AJINOMOTO CO. INC, priority 2006, published 2009)

Columns and labels:
[1] = Protein-binding rate of aluminum in rat plasma by ultrafiltration, with citric acid added; format: in vitro ADME; conditions: aluminum 50 μg/L, citric acid final concentration raised by 3 mg/dL, 37° C. 60 minutes, no citric acid: 23.4±10.0%
Protocol: Whether aluminum combined to proteins chelates with citric acid and is dissociated from the proteins in rat plasma was examined.
A used indicator was the protein-binding rates (by ultrafiltration method) when citric acid was added and when not added.
Aluminum was added to rat blood plasma to make the concentration 50 μg/L, and citric acid was added there to make the final concentration rise by 3 mg/dL. Then, it was incubated at 37° C. for 60 minutes. After that, the solution was centrifuged in a centrifuge (Centrifree) to obtain about 100 μL of filtrate. The aluminum concentrations of the added sample, the supernatant and the filtrate were measured respectively by the HPLC method (Chromatoracer Al; SHINO-TEST Corp.) to calculate the protein-binding rates.

[2] = Elimination of aluminum accumulated in rat thigh bones by repeated intravenous citric acid; format: in vivo; conditions: aluminum-loaded male rats, 0.75% citric acid solution i.v. 4 hours, three times a week for 4 weeks
Protocol: After aluminum accumulations were made in rat tissues, citric acid as an aluminum complexing agent was administered intravenously repeatedly to examine whether citric acid would eliminate the aluminum accumulated in the tissues.
Aluminum was administered to male rats intraperitoneally repeatedly once a day for 6 weeks at 2 mg/kg. Then, the rats were cannulated in the jugular vein.
From the jugular cannula, 0.75% citric acid solution was administered repeatedly taking the same dialysis time and frequency as in human; that is, for 4 hours continuously intravenously three times a week for 4 weeks.
For the control group, physiological saline was administered in the same means. Each group had 4 to 6 rats.
After the 4-week administration, thigh bones were collected from the rats to compare the aluminum levels in the thigh bones of both groups using the ratios of the aluminum peak area analyzed by the HPLC method against the peak area of internal standard substance as an indicator.

[3] = Citric acid concentration in patient blood plasma during dialysis with citric acid-containing dialysate; format: in vivo, human; conditions: 1.7 mEq/L of citric acid added to a dialysate during a dialysis treatment
Protocol: The present invention provides a dialysate comprising aluminum complexing agents. Preferably, the aluminum complexing agent is citric acid. […] Meanwhile, it had been confirmed that, when 1.7 mEq/L of citric acid had been added to a dialysate during a dialysis treatment, the citric acid concentration in the patient blood plasma had risen by about 3 mg/dL. In the following examples, how this phenomenon effects on the aluminum kinetics in vivo was examined.

free-aluminum percentage [1]: 35.5±0.4%
rise of citric acid concentration in patient blood plasma [3]: about 3 mg/dL
Structure (SMILES): O=C(O)CC(O)(CC(=O)O)C(=O)O [citric acid]
thighbone aluminum levels compared with control group ([2]; P<0.05 Student's t-test): statistically significantly lower
thigh bone aluminum level: ratio of aluminum peak area (HPLC) against peak area of internal standard ([2]; saline control 4.46±0.52, mean±S.D.): 3.62±0.27
